The first experiment has as its system Human Jurkat T-cells (clone N). Briefly: Jurkat T-cell activation (anti-TCR, CD69 upregulation). In kind it is cell-based.
Settings: not given
An outline of the steps: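 Jurkat cells in RPMI + 5% FBS preincubated with compound 1 h at 37 °C, then stimulated with anti-TCR C305 at 500 ng/ml for 20 h. CD69 surface expression stained with anti-CD69-APC and read by flow cytometry; IC50 versus solvent-only control.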
Compound `COC(=O)COc1ccc(Nc2ncc(F)c(Nc3ccc(OCC(=O)OC(C)(C)C)cc3)n2)cc1` [Compound R926572] came in with a concentration for half-maximal inhibition (IC50) above 10 µM.

`O=C(c1cc2cc(Nc3ncc(F)c(Nc4ccc5oc(C(=O)N6CCOCC6)cc5c4)n3)ccc2o1)N1CCOCC1` [Compound R950172] returned an IC50 of 23.1 µM.

On to `CNC(=O)COc1cccc(Nc2nc(Nc3cc(OC)cc(OC)c3)ncc2F)c1` [Compound R926810], for which the 50% inhibitory concentration (IC50) is 5.07 µM.

`O=C(COc1cccc(Nc2ncc(F)c(Nc3ccc4c(c3)OCCO4)n2)c1)NCCO` [Compound R926505]: the IC50 was determined as 1.15 µM.

In turn, `Fc1cnc(Nc2cccc(NCCOCc3ccccc3)c2)nc1Nc1cccc(NCCOCc2ccccc2)c1` [Compound R950174] came in with a half-inhibitory concentration (IC50) above 10 µM.

As to `Cc1nc(COc2cccc(Nc3ncc(F)c(Nc4ccc(OC(C)C)cc4)n3)c2)no1` [Compound R945129], the half-inhibitory concentration (IC50) was determined as 6.08 µM.

In turn, `Oc1cccc(Nc2nc(Nc3ccc(OCCN4CCOCC4)cc3)ncc2F)c1` [Compound R926699] displayed an IC50 of 1.86 µM.

For `COC(=O)Cn1ncc2ccc(Nc3ncc(F)c(Nc4ccc5cnn(CC(=O)OC)c5c4)n3)cc21` [Compound R935205], the IC50 stood at 10.7 µM.

In the case of `O=C(NCCN1CCOCC1)c1cc2cc(Nc3ncc(F)c(Nc4ccc5oc(C(=O)NCCN6CCOCC6)cc5c4)n3)ccc2o1` [Compound R950173], the half-inhibitory concentration (IC50) is 9.18 µM.

As to `O=C(c1cc2cc(Nc3ncc(F)c(Nc4ccc5c(c4)OCCO5)n3)ccc2o1)N1CCOCC1` [Compound R926492], the midpoint of inhibition, the IC50, lay at 3.33 µM.

In turn, `CN(C)C(=O)COc1cccc(Nc2ncc(F)c(Nc3ccc4c(c3)OCCO4)n2)c1` [Compound R925755] yielded an IC50 of 1.91 µM.

`OB(O)c1cccc(Nc2ncc(F)c(Nc3cccc(B(O)O)c3)n2)c1` [Compound R926836] came in with an IC50 of 14.5 µM.

For the compound `COC(=O)Cn1ncc2cc(Nc3nc(Nc4ccc(OC(C)C)cc4)ncc3F)ccc21` [Compound R935242], the IC50 was above 10 µM.

For the compound `CNC(=O)COc1cccc(Nc2ncc(F)c(Nc3ccc(OC)c(C(=O)NC(C)C)c3)n2)c1` [Compound R940312], it took 16.2 µM to reach half-maximal inhibition (IC50).

`CCOC(=O)c1ncn2c1COc1c(Nc3nc(Nc4cccc(OCC(=O)NC)c4)ncc3F)cccc1-2` [Compound R909265] showed an IC50 of 12 µM.

The compound `CNC(=O)COc1cccc(Nc2ncc(F)c(Nc3ccc4ncccc4c3)n2)c1` [Compound R926883] had an IC50 above 10 µM.

The compound `CNC(=O)COc1cccc(Nc2ncc(F)c(Nc3ccc(-n4cnc(Cl)c4Cl)cc3)n2)c1` [Compound R926812] registered an IC50 of 6.76 µM.

Compound `Nc1ccc(Nc2ncc(F)c(Nc3ccc(N)cc3)n2)cc1` [Compound R950122] returned an IC50 of 13.9 µM.

For `CNC(=O)COc1cccc(Nc2ncc(F)c(Nc3ccc(C)c(C(F)(F)F)c3)n2)c1` [Compound R926922], the half-inhibitory concentration (IC50) came to 6.12 µM.

The compound `COC(=O)C(C)Oc1ccc(Nc2ncc(F)c(Nc3ccc(OC(C)C(=O)OC)cc3)n2)cc1` (mixture of isomers) [Compound R926254] had a half-maximal inhibitory concentration (IC50) above 10 µM.

Take `O=C(COc1cccc(Nc2ncc(F)c(Nc3cccc(O)c3)n2)c1)NCCO` [Compound R926506]: the IC50 was determined as 2.68 µM.

`Cc1noc(COc2ccc(Nc3ncc(F)c(Nc4ccc5c(c4)OCCO5)n3)cc2)n1` [Compound R935143] gave an IC50 of 3.84 µM.

The compound `CC(C)(C)c1cccc(Nc2nc(Nc3ccc4oc(CO)cc4c3)ncc2F)c1` [Compound R940287] came in with a 50% inhibitory concentration (IC50) of 6.2 µM.

Compound `NC(=O)COc1ccc(Nc2ncc(F)c(Nc3ccc(OCC(N)=O)cc3)n2)cc1` [Compound R945025] registered an IC50 of 7.03 µM.

For `OCCNc1cccc(Nc2ncc(F)c(Nc3cccc(NCCO)c3)n2)c1` [Compound R950181], 2.69 µM corresponded to half-maximal inhibition (IC50).

Take `CNC(=O)COc1cccc(Nc2ncc(F)c(Nc3ccc(O)cc3)n2)c1` [Compound R950347]: half-maximal inhibition (IC50) was put at 2.7 µM.

Turning to `Cn1ncc2cc(Nc3nc(Nc4cccc(O)c4)ncc3F)ccc21` [Compound R935204], 3.87 µM corresponded to half-maximal inhibition (IC50).

Compound `CNC(=O)COc1cccc(Nc2nc(Nc3ccc4c(c3)OCCO4)ncc2F)c1` [Compound R926776] registered an IC50 of 12.5 µM.

In the case of `CC(C)Oc1ccc(Nc2nc(Nc3cccc(OCC(=O)O)c3)ncc2F)cc1` [Compound R926731], the IC50 was above 10 µM.

In turn, `Fc1cnc(Nc2cccc(OCCN3CCOCC3)c2)nc1Nc1ccc2c(c1)OCCO2` [Compound R926486] gave an IC50 of 1.75 µM.

Regarding `CNC(=O)COc1cccc(Nc2ncc(F)c(Nc3ccc(C#N)c(C)c3)n2)c1` [Compound R926851], the 50% inhibitory concentration (IC50) was 3.09 µM.

Take `CC(=O)N(C(C)=O)c1cccc(N(C(C)=O)c2ncc(F)c(N(C(C)=O)c3cccc(N(C(C)=O)C(C)=O)c3)n2)c1` [Compound R950247]: the IC50 was above 10 µM.

As to `CNC(=O)COc1ccc(Nc2ncc(F)c(Nc3ccc(C(C)(C)C)cc3)n2)cc1` [Compound R926712], the IC50 came to 6.35 µM.

Regarding `Cn1nnnc1COc1ccc(Nc2nccc(Nc3cccc(O)c3)n2)cc1` [Compound R920917], the concentration for half-maximal inhibition (IC50) was 2.65 µM.

In turn, `CNC(=O)COc1cc(Nc2ncc(F)c(Nc3ccc4c(c3)OCCO4)n2)ccc1OC` [Compound R926828] displayed an IC50 of 1.01 µM.

Turning to `COCOc1ccc(Nc2nc(Nc3cccc(O)c3)ncc2F)c(F)c1` [Compound R926680], the midpoint of inhibition, the IC50, lay at 5.7 µM.

In turn, `CC(C)c1cccc(Nc2nc(Nc3cccc(OCC(=O)NC[C@@H](O)CO)c3)ncc2F)c1` [Compound R940307] yielded an IC50 of 2.06 µM.

For the compound `CN(C)C(=O)COc1cccc(Nc2ncc(F)c(Nc3ccc4c(c3)NCCO4)n2)c1` [Compound R909290], the midpoint of inhibition, the IC50, lay at 1.56 µM.

Regarding `CNC(=O)COc1cccc(Nc2ncc(F)c(Nc3ccc(F)c(C(F)(F)F)c3)n2)c1` [Compound R926838], inhibition was half-maximal at 10.7 µM (IC50).

Compound `O=C(COc1cccc(Nc2ncc(F)c(Nc3ccc4c(c3)OCCO4)n2)c1)N1CCNCC1` [Compound R926504] showed an IC50 of 1.78 µM.

The compound `CON=C(N)COc1ccc(Nc2ncc(F)c(Nc3ccc(OCC(N)=NOC)cc3)n2)cc1` [Compound R945096] returned an IC50 of 2.8 µM.

`OCCCn1ncc2cc(Nc3ncc(F)c(Nc4ccc5c(c4)OCCO5)n3)ccc21` [Compound R935302] yielded an IC50 of 0.8 µM.

Regarding `COC(=O)COc1ccc(Nc2ccnc(Nc3ccc(OCC(=O)OC)cc3)n2)cc1` [Compound R926256], the IC50 is above 10 µM.

For `COc1cc(Nc2nc(Nc3cccc(O)c3)ncc2F)c(OC)cc1Cl` [Compound R926860], the IC50 was above 10 µM.

`CCOC(=O)CNc1cccc(Nc2ncc(F)c(Nc3cccc(O)c3)n2)c1` [Compound R950216] displayed an IC50 of 3.86 µM.

As to `CCOC(=O)c1cnc(N[C@H](C(=O)OCC)C(C)C)nc1N[C@H](C(=O)OCC)C(C)C` [Compound R926527], inhibition was half-maximal at 21.2 µM (IC50).

`OCCn1ncc2ccc(Nc3ncc(F)c(Nc4ccc5cnn(CCO)c5c4)n3)cc21` [Compound R935238] returned an IC50 of 6.73 µM.

Still in this experiment, the particulars now being: Homo sapiens.
`CCNC(=O)Oc1cccc(Nc2ncc(F)c(Nc3cccc(O)c3)n2)c1` [Compound R926928] yielded an IC50 above 10 µM.

Staying with this experiment, now noted: Homo sapiens, Jurkat.
On to `Oc1cccc(Nc2ncc(F)c(NCc3csc4ccc(Cl)cc34)n2)c1` [Compound R926722], for which the concentration for half-maximal inhibition (IC50) was above 10 µM.

In turn, `CCOC(=O)Nc1ccc(Nc2ncc(F)c(Nc3ccc(NC(=O)OCC)c(O)c3)n2)cc1O` [Compound R926340] registered a 50% inhibitory concentration (IC50) above 10 µM.

The compound `Fc1cnc(Nc2ccc(SC(F)(F)F)cc2)nc1Nc1ccc2c(c1)OCCO2` [Compound R926899] came in with an IC50 above 10 µM.

The compound `Cc1ccc(Nc2ncc(F)c(Nc3ccc(C)c(N)c3)n2)cc1N` [Compound R950129] had a half-inhibitory concentration (IC50) of 6.88 µM.

In turn, `Fc1cnc(Nc2ccc(N3CCN(Cc4ccccc4)CC3)cc2)nc1Nc1ccc2c(c1)OCCO2` [Compound R945163] displayed a half-inhibitory concentration (IC50) above 10 µM.

As for `c1ccc(-c2ccccc2Nc2ccnc(Nc3ccccc3-c3ccccc3)n2)cc1` [Compound R925804], the concentration for half-maximal inhibition (IC50) was above 10 µM.

`COc1ccc(Nc2nc(Nc3cccc(O)c3)ncc2F)cc1OC` [Compound R926147]: the 50% inhibitory concentration (IC50) was above 10 µM.

For the compound `Fc1ccc(Nc2ncc(F)c(Nc3ccc4c(c3)OCCO4)n2)cc1` [Compound R926220], the concentration for half-maximal inhibition (IC50) is above 10 µM.

Take `Cc1c(O)ccc(Nc2ncc(F)c(Nc3ccc(O)c(C)c3C)n2)c1C` [Compound R940217]: the IC50 was above 10 µM.

Consider `OCCN(CCO)c1cccc(Nc2ncc(F)c(Nc3ccc4c(c3)OCCO4)n2)c1` [Compound R950209], for which it took 3.8 µM to reach half-maximal inhibition (IC50).

As to `CCOC(=O)C(Nc1ncc(C#N)c(NC(C(=O)OCC)C(C)C)n1)C(C)C` (stereo not shown) [Compound R925814], the half-maximal inhibitory concentration (IC50) was 14.2 µM.

Consider `COc1ccc(Nc2ncc(F)c(Nc3ccc4c(c3)OCCO4)n2)c(OC)c1` [Compound R926789], for which the IC50 is above 10 µM.

Take `CC(Nc1nc(Nc2cccc(O)c2)ncc1Br)c1ccc(F)cc1` (racemic) [Compound R935023]: the half-inhibitory concentration (IC50) is above 10 µM.

The compound `Fc1cnc(Nc2ccccc2-c2ccccc2)nc1Nc1ccccc1-c1ccccc1` [Compound R926398] gave a concentration for half-maximal inhibition (IC50) above 10 µM.

Regarding `COc1ccc(Nc2ncc(F)c(Nc3ccc4c(c3)OCCO4)n2)c(C)c1` [Compound R926845], the IC50 was above 10 µM.

Take `Fc1cnc(Nc2ccc(-n3cnc(Cl)c3Cl)cc2)nc1Nc1ccc2c(c1)OCCO2` [Compound R926788]: the IC50 is above 10 µM.

With `Nc1cc(Nc2ncc(F)c(Nc3ccc(F)c(N)c3)n2)ccc1F` [Compound R950159], it took 8.45 µM to reach half-maximal inhibition (IC50).

Regarding `CC(C)(CO)c1ccc(Nc2nc(Nc3cccc(OCCO)c3)ncc2F)cc1` [Compound R935161], it took 3.13 µM to reach half-maximal inhibition (IC50).

Turning to `Fc1cc(Nc2ncc(F)c(Nc3ccc4c(c3)OCCO4)n2)cc(C(F)(F)F)c1` [Compound R926894], the 50% inhibitory concentration (IC50) was above 10 µM.

As to `N#Cc1cccc(Nc2nc(Nc3cccc(O)c3)ncc2F)c1` [Compound R945109], the half-inhibitory concentration (IC50) was 9.64 µM.

Take `COC(=O)Cc1ccc(Nc2ncc(F)c(Nc3ccc(CC(=O)OC)cc3)n2)cc1` [Compound R926605]: the IC50 was above 10 µM.

`CN(C)c1cccc(Nc2ncc(F)c(Nc3cccc(N(C)C)c3)n2)c1` [Compound R950182] had an IC50 above 10 µM.

What is called IC50 is the concentration at which inhibition is half-maximal. A lower IC50 goes with greater potency in that assay.

Source of the values: patent US8158621B2, “Methods of treating or preventing autoimmune diseases with 2,4-pyrimidinediamine compounds” (Rigel Pharmaceuticals, Inc., priority 2002, dated 2012).
